Patent publication US20200270309A1, “MALEIMIDE GROUP-MODIFIED ANGIOGENESIS INHIBITOR HM-1 AND USE THEREOF” (NANJING ANJI BIOLOGICAL TECHNOLOGY CO., LTD, priority 2017, published 2020)
Marks after values point to notes of the source that are not given here. Values belong to the compound of their own block, whether it stands above or below them. Peptide text beside a SMILES is read from it. * marks the point of attachment. X74 = O=C1C=CC(=O)N1c1cccc(CCCCCCCCCCC(=O)*)c1; X61 = O=C1C=CC(=O)N1c1cccc(CCCC(=O)*)c1

Assays:
[1] = tested on: human retinal capillary endothelial cells (HRCECs); test: MTT proliferation inhibition on HRCECs; type: cell-based; settings: 48 h; for A570 nm-A630 nm: mean±SD
Protocol: An MTT method was used to detect the inhibitory activity of the angiogenesis inhibitor polypeptide on proliferation of HRCECs. HRCECs were digested and collected with trypsin after being cultured in an incubator at 37° C. with 5% CO2 to a density of 90% or more. The cells were resuspended with a culture solution and counted under a microscope, the cell concentration was adjusted to 3.0×10^4 cells/mL, and the cell suspension was inoculated into a 96-well plate at 100 μL/well, and cultured overnight in an incubator at 37° C. with 5% CO2. After the cells were completely adhered to the wall, cells with the addition of the angiogenesis inhibitor polypeptide were used as administration groups, cells with the addition of Avastin were used as a positive control group, and cells with the addition of culture solution without any drugs were used as a blank control group. The cells were diluted to respective predetermined concentrations with the culture solution. The diluent were added into 96-well plates respectively at 100 μL per well, and the cells were cultured at 37° C. for 48 h in an incubator with 5% CO2. 20 μL of 5 mg/mL MTT was added into each well of the 96-well plate, and the cultivation was continued for 4 h. The culture medium was removed, and 100 μL of DMSO was added to each well for dissolution. The absorbance was measured at a detection wavelength of 570 nm and a reference wavelength of 630 nm using a microplate reader, and the PIR was calculated by the formula as follows:
PIR (%)=1−administration group/negative group
The experiment was repeated independently three times. The results were expressed as mean±SD, and statistical T test was conducted. *P<0.05 indicates significant difference, and **P<0.01 indicates extremely significant difference.

HUVECs = test: Transwell migration inhibition on HUVECs; type: cell-based, human; settings: for Inhibition rate (%): HUVEC migration vs blank control; for Cell migration number (Mean ± SD): HUVECs, transwell, 24 h
[2] = tested on: carrageenan-induced toe swelling; test: Carrageenan-induced toe swelling in rats; type: in vivo; settings: SD rats; for Swelling degree 1 h: 1 h after carrageenan; for Swelling degree 3 h: 3 h after carrageenan; for Swelling degree 5 h: 5 h after carrageenan; for Swelling degree 7 h: 7 h after carrageenan
Protocol: The rats were injected once a day, and the model group was given the same volume of normal saline for 3 d and fed normally. […] The foot swelling degree was calculated according to the following formula: foot swelling degree (mL)=foot volume after inflammation-foot volume before inflammation. The number of milliliters of overflow liquid was recorded (method: a ballpoint pen is used to circle the protruding point of the right joint as a measurement mark, and the right hind feet of each rat are sequentially placed into the volume measurer, so that the hind limbs are exposed outside the barrel, and the immersion depth is at the coincidence of the circle and the liquid level. After the foot enters the liquid, the liquid level rises, and the volume of overflow liquid is the volume of the right hind foot of the rat, and the normal volume of the right hind foot of each rat is measured in sequence).

[3] = Half-lives and pharmacokinetic parameters of polypeptides vs HM-1; settings: in vivo; for half-life: T1/2β (half-life)
[4] = tested on: choroidal neovascularization; test: Choroidal neovascularization in rats (laser photocoagulation, FFA); type: in vivo; settings: BN rats
Protocol: 6-8 weeks male BN rats were fully anesthetized by intraperitoneal injection of 846 compound anesthetic with a concentration of 0.5 mL/kg. Compound tropicamide eye drops were used once 5 min before laser photocoagulation to fully dilate the pupils of both eyes. The animals were fixed and subjected to krypton laser photocoagulation equidistantly around an optic disc with the aid of a −53.00D corneal contact lens at a distance of 2PD from the optic disc. A total of 8 photocoagulation spots were obtained. The laser wavelength was 647.1 nm, the power was 350 mW, and the diameter and time of the photocoagulation spots were 50 μm and 0.05 s respectively. Fundus photography was performed immediately after photocoagulation. FFA, histopathology and transmission electron microscopy were performed on the days 3, 7, 14, 21 and 28 after photocoagulation respectively.
Through fundus photography and FFA examination, it was confirmed that the fluorescein leakage of the photocoagulation spot reached its peak on day 21 after photocoagulation. At the same time, histopathological examination was carried out.
Rats with successful modeling were randomly grouped, with 5 rats in each group. The groups were marked as a negative control group and X1-X90 treatment groups respectively. The rats were injected with normal saline and X1-X90 (the doses of X1-X90 were each 0.05 μM) in the vitreous chamber once a day for 1 week. FFA examination was carried out 3 days, 7 days, 14 days and 28 days after administration.

[5] = tested on: collagen-induced arthritis; test: Mouse collagen-induced arthritis (CIA) animal model; type: in vivo; settings: DBA/1 mice CIA model, dose 4.0 mg/kg, subcutaneous from day 30, n=10; for Clinical score: highest score 16
[6] = tested on: xylene-induced ear swelling; test: Xylene-induced mouse ear swelling; type: in vivo; settings: Kunming mice, injected once a day for 5 days; for Inhibition rate (%): xylene-induced ear swelling
Protocol: Kunming mice were taken, a normal saline group was taken as a blank control group, an aspirin group (200 mg/kg) was taken as a positive control group, and X1-X90 administration groups were taken as test groups. The mice were injected once a day for 5 consecutive days. The blank control group was given an equal volume of normal saline. One hour after the last administration, 0.05 mL of xylene was applied to both sides of the right ear of each mouse to cause inflammation, while no drug was applied to the left ear as a normal ear. Two hours later, the mice were put to death by dislocation. Two ears were cut along the auricle. Ear pieces were taken with a puncher and weighed, and the swelling degree and the swelling rate were calculated. Swelling degree=right ear piece weight-left ear piece weight, swelling rate=(swelling degree/left ear piece weight)*100%. Statistical t-test was conducted on the experimental results. *P<0.05 indicates significant difference, and **P<0.01 indicates extremely significant difference.

[7] = tested on: corneal neovascularization; test: Corneal neovascularization induced by alkali burn in BALB/c mice; type: in vivo; design: Inhibition rate (corneal neovascularization): concentration or dose not given beside the values; settings: day 14 after alkali burn, vitreous injection once a day for 1 week
[8] = day 3 after administration, total light spot number was 297, 0.05 μM in the vitreous chamber once a day for 1 week
[9] = day 7 after administration, total light spot number was 186, 0.05 μM in the vitreous chamber once a day for 1 week
[10] = day 14 after administration, total light spot number was 137, 0.05 μM in the vitreous chamber once a day for 1 week
[11] = day 28 after administration, total light spot number was 69, 0.05 μM in the vitreous chamber once a day for 1 week
[12] = dose 2 mg/kg, right minus left ear piece weight 2 h after xylene
[13] = dose 4 mg/kg, right minus left ear piece weight 2 h after xylene
[14] = dose 8 mg/kg, right minus left ear piece weight 2 h after xylene

AUC(0-inf) [3]: 27700 ± 8150 ng·h/mL
MRT inf [3]: 49.6 ± 10.2 h
clearance [3]: 0.602 mL/min/kg
half-life [3]: 34.35 ± 0.26 h
SMILES: C[C@H](NC(=O)CNC(=O)[C@H](CCCNC(=N)N)NC(=O)CCCCCCCCCCc1cccc(N2C(=O)C=CC2=O)c1)C(=O)N[C@@H](CC(=O)O)C(=O)N[C@@H](CCCNC(=N)N)C(=O)N[C@@H](C)C(=O)NCC(=O)NCC(=O)NCC(=O)NCC(=O)N[C@@H](CCCNC(=N)N)C(=O)NCC(=O)N[C@@H](CC(=O)O)C(=O)O [X34] (X74-RGADRAGGGGRGD-OH)
Inhibition rate (%) ([1]; dose 0.05 μM): 50.55%*
A570 nm-A630 nm ([1]; dose 0.05 μM): 0.6536 ± 0.08102
Inhibition rate (%) ([1]; dose 0.1 μM): 51.43%**
A570 nm-A630 nm ([1]; dose 0.1 μM): 0.6420 ± 0.08726
Inhibition rate (%) ([1]; dose 0.2 μM): 59.92%*
A570 nm-A630 nm ([1]; dose 0.2 μM): 0.5298 ± 0.07541
Inhibition rate (%) (HUVECs; dose 0.05 μM): 47.95%
Inhibition rate (%) (HUVECs; dose 0.1 μM): 52.08%
Inhibition rate (%) (HUVECs; dose 0.2 μM): 53.69%
Cell migration number (Mean ± SD) (HUVECs; dose 0.05 μM): 557.95 ± 42.69
Cell migration number (Mean ± SD) (HUVECs; dose 0.1 μM): 513.64 ± 43.27
Cell migration number (Mean ± SD) (HUVECs; dose 0.2 μM): 496.39 ± 56.37
Swelling degree 1 h ([2]; 2.0 mg/kg once a day for 3 d): 0.26 ± 0.18 mg
Swelling degree 3 h ([2]; 2.0 mg/kg once a day for 3 d): 0.38 ± 0.13 mg
Swelling degree 5 h ([2]; 2.0 mg/kg once a day for 3 d): 0.39 ± 0.11 mg
Swelling degree 7 h ([2]; 2.0 mg/kg once a day for 3 d): 0.35 ± 0.14 mg
Swelling degree 1 h ([2]; 4.0 mg/kg once a day for 3 d): 0.22 ± 0.18 mg
Swelling degree 3 h ([2]; 4.0 mg/kg once a day for 3 d): 0.38 ± 0.15 mg
Swelling degree 5 h ([2]; 4.0 mg/kg once a day for 3 d): 0.36 ± 0.16 mg
Swelling degree 7 h ([2]; 4.0 mg/kg once a day for 3 d): 0.34 ± 0.13 mg
CNV Incidence (%) [4, 8]: 52.19%
Leakage Light spot number [4, 8]: 155
CNV Incidence (%) [4, 9]: 47.31%
Leakage Light spot number [4, 9]: 88
CNV Incidence (%) [4, 10]: 45.99%
Leakage Light spot number [4, 10]: 63
CNV Incidence (%) [4, 11]: 42.03%
Leakage Light spot number [4, 11]: 29
Joint swelling degree (mm) [5]: 0.84 ± 0.13 mm
Left and right paw swelling degree (mm) [5]: 0.72 ± 0.15 mm
Clinical score [5]: 8.8 ± 1.34
Swelling degree (mg) [6, 12]: 3.86 ± 0.43** mg
Inhibition rate (%) ([6]; dose 2 mg/kg): 38.04%
Swelling degree (mg) [6, 13]: 3.36 ± 0.53** mg
Inhibition rate (%) ([6]; dose 4 mg/kg): 46.07%
Swelling degree (mg) [6, 14]: 3.2 ± 0.39** mg
Inhibition rate (%) ([6]; dose 8 mg/kg): 48.64%
Inhibition rate (corneal neovascularization) [7]: 48.36%
MVD (corneal microvessel density) [7]: 34.72 ± 6.051

AUC(0-inf) [3]: 26200 ± 7250 ng·h/mL
MRT inf [3]: 46.9 ± 9.74 h
clearance [3]: 0.635 mL/min/kg
half-life [3]: 32.52 ± 0.25 h
SMILES: C[C@H](NC(=O)CNC(=O)[C@H](CCCNC(=N)N)NC(=O)CCCc1cccc(N2C(=O)C=CC2=O)c1)C(=O)N[C@@H](CC(=O)O)C(=O)N[C@@H](CCCNC(=N)N)C(=O)N[C@@H](C)C(=O)NCC(=O)NCC(=O)NCC(=O)NCC(=O)N[C@@H](CCCNC(=N)N)C(=O)NCC(=O)N[C@@H](CC(=O)O)C(=O)O [X27] (X61-RGADRAGGGGRGD-OH)
Inhibition rate (%) ([1]; dose 0.05 μM): 49.84%*
A570 nm-A630 nm ([1]; dose 0.05 μM): 0.6629 ± 0.02448
Inhibition rate (%) ([1]; dose 0.1 μM): 56.47%**
A570 nm-A630 nm ([1]; dose 0.1 μM): 0.5753 ± 0.02814
Inhibition rate (%) ([1]; dose 0.2 μM): 56.64%*
A570 nm-A630 nm ([1]; dose 0.2 μM): 0.5731 ± 0.04774
Inhibition rate (%) (HUVECs; dose 0.05 μM): 46.39%
Inhibition rate (%) (HUVECs; dose 0.1 μM): 49.01%
Inhibition rate (%) (HUVECs; dose 0.2 μM): 53.38%
Cell migration number (Mean ± SD) (HUVECs; dose 0.05 μM): 574.65 ± 60.83
Cell migration number (Mean ± SD) (HUVECs; dose 0.1 μM): 546.51 ± 46.67
Cell migration number (Mean ± SD) (HUVECs; dose 0.2 μM): 499.65 ± 59.06
Swelling degree 1 h ([2]; 2.0 mg/kg once a day for 3 d): 0.27 ± 0.13 mg
Swelling degree 3 h ([2]; 2.0 mg/kg once a day for 3 d): 0.33 ± 0.14 mg
Swelling degree 5 h ([2]; 2.0 mg/kg once a day for 3 d): 0.39 ± 0.17 mg
Swelling degree 7 h ([2]; 2.0 mg/kg once a day for 3 d): 0.36 ± 0.16 mg
Swelling degree 1 h ([2]; 4.0 mg/kg once a day for 3 d): 0.24 ± 0.12 mg
Swelling degree 3 h ([2]; 4.0 mg/kg once a day for 3 d): 0.33 ± 0.16 mg
Swelling degree 5 h ([2]; 4.0 mg/kg once a day for 3 d): 0.32 ± 0.17 mg
Swelling degree 7 h ([2]; 4.0 mg/kg once a day for 3 d): 0.34 ± 0.14 mg
CNV Incidence (%) [4, 8]: 54.88%
Leakage Light spot number [4, 8]: 163
CNV Incidence (%) [4, 9]: 46.24%
Leakage Light spot number [4, 9]: 86
CNV Incidence (%) [4, 10]: 42.34%
Leakage Light spot number [4, 10]: 58
CNV Incidence (%) [4, 11]: 36.23%
Leakage Light spot number [4, 11]: 25
Joint swelling degree (mm) [5]: 0.78 ± 0.19 mm
Left and right paw swelling degree (mm) [5]: 0.75 ± 0.13 mm
Clinical score [5]: 8.75 ± 1.43
Swelling degree [6, 12]: 5.36 ± 0.32 mg
Inhibition rate (%) ([6]; dose 2 mg/kg): 13.96%
Swelling degree (mg) [6, 13]: 4.76 ± 0.89* mg
Inhibition rate (%) ([6]; dose 4 mg/kg): 23.60%
Swelling degree (mg) [6, 14]: 3.13 ± 0.38* mg
Inhibition rate (%) ([6]; dose 8 mg/kg): 27.13%
Inhibition rate (corneal neovascularization) [7]: 43.93%
MVD (corneal microvessel density) [7]: 37.70 ± 3.805
